We go through 3 molecules from patent US10092596B2, “Tungstate treatment of the dysbiosis associated with gastrointestinal inflammation” (THE REGENTS OF THE UNIVERSITY OF CALIFORNIA, priority 2013, dated 2018).

One data set has as its system nitrate/nitrite. Briefly: Nitrate/nitrite concentration in the cecal mucus of DSS-treated mice. Type of data set: in vivo. To be noted: AG in drinking water. The source says: Bars represent geometric means±standard error. *, P<0.05; **, P<0.01.
To determine whether the availability of nitrate increases during DSS colitis, the concentration of nitrate/nitrite in the colonic mucus of mock-treated and DSS-treated mice was examined. […] The results supported the idea that the inflammatory host response generates respiratory electron acceptors in the large bowel.
(§1) Since the fitness advantage conferred by nitrate respiration was abrogated in Nos2-deficent mice (FIG. 2), the ability of inhibiting nitrate respiration in vivo was tested by supplementing the drinking water of mice with the iNOS inhibitor aminoguanidine (AG).

For data set [1], the system named is E. coli Nissle 1917 and narG napA narZ mutant. Put plainly: Competitive infection of DSS-treated mice with E. coli Nissle 1917 and its nitrate respiration-deficient mutant. Type of data set: in vivo. To be noted: AG in drinking water, five days after infection. On the procedure: Mice were mock-treated or treated with dextran sulfate sodium (DSS) or DSS+aminoguanidine (AG) and infected with equal mixtures of the indicated E. coli strains. Five days after infection, the ratio of wild-type (wt) and mutant recovered from colon contents was determined (competitive index). Bars represent geometric means±standard error.
Next, mock-treated mice (C57BL/6) or mice with DSS-induced colitis were inoculated with an equal mixture of E. coli Nissle 1917 and its isogenic nitrate respiration-deficient mutant (competitive infection design). Wild type and nitrate respiration-deficient mutant strains colonized the intestine of normal mice poorly, but similar numbers of each strain were recovered from colon contents (FIG. 2). […] Thus, nitrate respiration enhanced the fitness of E. coli in the inflamed gut.
as §1

The nature of data set [2]: Inflammation and morbidity in DSS-treated mice infected with LF82. In kind it is in vivo, mice (C57BL/6). To be noted: AG or tungstate in water, NAC in chow. On the procedure: The development of intestinal inflammation can be followed as described below. The severity of inflammatory changes in the cecum and the colon are assessed by several independent approaches at three, five and seven days after inoculation. First, the relative transcript levels of genes encoding neutrophil chemoattractants (i.e., genes encoding the CXC-chemokines Kc and the Mip2) and iNOS (Nos2) are determined (see, e.g., 62, 64). Second, to monitor, on the protein level, how inflammatory markers increase after DSS treatment, expression levels of iNOS and myeloperoxidase (MPO) are analyzed in protein samples extracted from the colonic mucosa by Western blot using anti-iNOS antibodies (Abcam), anti-MPO antibodies (R&D systems), and anti-tubulin as a loading control (64). Third, concentrations of the neutrophil-specific enzyme MPO in fecal pellets are measured by ELISA. This can serve as an indicator for the degree of neutrophil transmigration into the intestinal lumen over time (6, 42). Finally, pathological changes in the colonic mucosa are assessed through standardized, blinded scoring of formalin-fixed, hematoxylin and eosin-stained sections by a veterinary pathologist (64).

The test system of data set [3] is neutrophils. To be noted: in vitro; cited from earlier work.
Data set [4] deals with neutrophils. The settings on record: in vivo; cited from earlier work.
A further data set concerns nitrate reductase. Put plainly: Nitrate reductase activity in E. coli Nissle 1917 cultures (modified Griess assay). In kind it is cell-based. To be noted: LB broth with 40 mM nitrate, microaerobic, 3 h at 37° C.; versus mock-treated cultures. The source says:
In E. coli, the respiratory reductases for nitrate, DMSO and TMAO as well as the formate dehydrogenases FdnG and FdoG contain molybdenum (Mo) as a key catalyst for electron transfer reactions (7). The functions of FdnG and FdoG are linked to respiration, because these two formate dehydrogenases couple respiratory electron acceptors to the electron donor formate, a fermentation end product present in the large intestine. Formate dehydrogenases and respiratory reductases contain Mo within a molybdopterin cofactor. Tungsten (W) has chemical properties similar, but not identical, to Mo. […] To test whether the addition of W (as the soluble sodium salt Na2WO4; sodium tungstate) to bacterial growth media can inhibit anaerobic nitrate respiration, aliquots of LB broth supplemented with 40 mM nitrate and varying concentrations of tungstate were inoculated with the E. coli Nissle 1917 wild-type strain and incubated under microaerobic conditions for 3 h at 37° C. (3). Nitrate reductase activity was assayed using a modified Griess assay (9) (FIG. 9).
For orientation: The Griess reaction detects nitrite, a stable product of nitric oxide.

Data set [5] concerns E. coli Nissle 1917 wild-type and moaA mutant. Put plainly: DSS colitis model, colonization with E. coli indicator strains (wild-type and moaA mutant, 1:1). Type of data set: in vivo. The source says: (§2) To determine whether the administration of soluble tungsten (W) salts can abolish anaerobic respiration and thus blunt the bloom of Enterobacteriaceae in vivo, a murine model of chemically-induced colitis, the dextran sulfate sodium (DSS) colitis model, was employed. Oral administration of DSS in the drinking water induces a vigorous intestinal inflammatory response that is accompanied by a bloom of commensal Enterobacteriaceae (3). Groups of C57BL/6 mice received DSS-supplemented (2 or 3%) drinking water or received DSS-supplemented (2 or 3%) drinking water with sodium tungstate (0.2%) added. After onset of inflammation (4 days after start of the treatment), mice were intragastrically inoculated with a 1:1 mixture of the E. coli Nissle 1917 wild-type and an isogenic moaA mutant deficient for molybdopterin cofactor biosynthesis. Utilization of these non-pathogenic indicator strains allows a determination of the growth advantage conferred through anaerobic respiration by comparing colonization with the wild-type strain with an anaerobic respiration-deficient mutant (moaA mutant) (3). 5 days after inoculation of mice, animals were euthanized and colonization with the E. coli indicator strains determined by cultivation on selective media (each of the strains is marked with a different antibiotic resistance gene) (FIG. 10).
To further test the efficacy of tungstate treatment, E. coli indicator strains that were either proficient for anaerobic respiration (E. coli Nissle 1917 wild-type) or deficient for nitrate respiration, DMSO respiration, and TMAO respiration due to a mutation in one of the molybdopterin cofactor biosynthesis genes (E. coli Nissle 1917 moaA mutant) were used. Groups of mice with DSS-induced colitis were inoculated with an equal mixture of both E. coli indicator strains (i.e., wild-type and moaA mutant) and received either regular water (vehicle control) or drinking water containing 2 g/l sodium tungstate (Na2WO4×2H2O; Sigma-Aldrich, St. Louis, Mo., USA) to receive a calculated average dose of 130 mg/kg/day (assuming 2.6 ml of water intake per day for each animal). These experiments determined whether anaerobic respiration would provide a fitness advantage upon the E. coli wild-type over the moaA mutant in the inflamed intestine of DSS-treated mice. Furthermore, if tungstate treatment would inhibit anaerobic respiration, these experiments determined whether this fitness advantage would be eliminated and both strains would be recovered at a 1:1 ratio. In other words, the use of E. coli indicator strains as described herein enabled the determination of whether tungstate treatment would block growth by anaerobic respiration in vivo.

The nature of data set [6]: Body weight in the DSS-colitis model. In kind it is in vivo, C57BL/6 mice. To be noted: 3% DSS, tungstate 0.2% in drinking water, after 8 days of DSS treatment.
Source text: as §2, with “10). […]” for “10).”

Data set [7] is described as follows: Histopathology score of the cecum in DSS-treated conventional mice. In kind it is in vivo. To be noted: 4% DSS for 9 days, blinded scoring. An excerpt:
(§3) (13A-C) Conventional mice received 4% DSS alone (DSS) or in combination with sodium tungstate (DSS+Na2WO4) for 9 days. (13D) Germ-free mice received 1% DSS or 1% DSS+Na2WO4 for five days. (13A) Average histopathology score from the cecum.
(§4) This reduction was remarkable, because DSS treatment induces cecal inflammation by a mechanism that is only partially dependent on the presence of microbiota (10). In other words, DSS treatment causes inflammation in germ-free mice, but inflammation is exacerbated by the presence of microbiota. Thus, by inhibiting the microbiota-dependent component of inflammation, one can only expect to achieve a reduction in inflammation, but not a resolution of inflammation. Thus, given the marked pathology observed in DSS-treated germ-free mice (10), the reduction of cecal pathology after tungsten treatment was remarkable.

The subject of another data set is Tnfa. Put plainly: Tnfa transcript levels in the cecal mucosa of DSS-treated mice (real-time PCR). Type of data set: in vivo. The settings on record: conventional mice, 4% DSS for 9 days.
Source text: as §3, §4
(Real-time PCR tracks product formation cycle by cycle.)

Data set [8] relates to Kc. Put plainly: Kc transcript levels in the cecal mucosa of DSS-treated conventional mice (real-time PCR). In kind it is in vivo. To be noted: 4% DSS for 9 days.
Source text: as §3, §4

In data set [9] the test system is Kc. Put plainly: Kc transcript levels in the cecal mucosa of DSS-treated germ-free mice. Type of data set: in vivo. The settings on record: 1% DSS, 5 days after the beginning of DSS treatment. On the procedure:
as §3
The key experiment to distinguish between these two possibilities is to test whether tungstate treatment reduces inflammation in germ-free mice. To this end, groups of four germ-free mice were treated with 1% DSS, 1% DSS+sodium tungstate, or drinking water without supplementation.

In data set [10] the test system is facultative anaerobic bacteria. Put plainly: Microbial community profiling in mouse colitis models (16S rRNA gene sequences). In kind it is in vivo. To be noted: mice with severe colitis (DSS or oxazolone) treated with tungstate. The source says:
To investigate whether changes in the microbial communities that develop during inflammation are due to anaerobic respiration, the temporal dynamics of the entire gut community can be monitored in mouse models of colitis. In particular, colitis can be induced by DSS treatment or hapten-induced (oxazolone-treatment) in wild type and Nos2-deficient mice, including those that are additionally exposed to tungstate, AG, or NAC. The experiments can be performed as follows.
Wild type mice (C57BL/6) and Nos2-deficient mice are co-housed for two weeks to reduce the variation in the microbial community structure prior to inducing inflammation. Feces are collected from all animals for DNA isolation to establish a baseline of the microbiota composition at the beginning of the experiment. Six mice from each mouse strain (C57BL/6 mice or Nos2-deficient mice) are euthanized to isolate bacterial DNA from cecal and colon contents and to establish a baseline for inflammatory host responses using the methods described above (see, Section 5). Groups of mice from each mouse strain (e.g., C57BL/6 mice or Nos2-deficient mice) are treated with 4% DSS in drinking water or are “mock-treated” (i.e., mice will receive drinking water without DSS). […]
The development of intestinal inflammation is monitored using methods described above (see, Section 5). […]

The test system of another data set is AIEC strain LF82. The settings on record: DSS-treated mice infected with LF82, tungstate in water.
The conditions of data set [11]: oral, 100 mg twice a day for 6 weeks, cited from earlier work.
[12] abbreviates: sodium tungstate 0.2% in drinking water, DSS 2 or 3%, 5 days after inoculation.

Like-named read-outs stand apart in the source and are kept apart here.

Procedure for AIEC strain LF82: Groups of 6 DSS-treated mice (C57BL/6) were provided with water or water supplemented with AG or tungstate and fed regular chow or chow supplemented with NAC. Mice were then inoculated with wild-type LF82 or sterile medium (mock-infection) and organs were collected at three, five and seven days after infection.
In addition, colony forming units (CFU) of E. coli are determined by spreading homogenates of colon contents on plates containing the appropriate antibiotics (all LF82 derivatives are marked with a kanamycin resistance cassette inserted downstream of the lac operon).

Turning to `N=C(N)NN` [AG, aminoguanidine], the “availability of nitrate/nitrite in the large bowel” value in the data set with nitrate/nitrite is “markedly reduced”. The “fitness advantage conferred by nitrate respiration (competitive index)” value in [1] is “abrogated the fitness advantage”. In addition, the inflammation and morbidity result in data set [2] is given as “intermediate effect”.
Turning to `CC(=O)N[C@@H](CS)C(=O)O` [NAC, N-acetylcysteine], the inflammation and morbidity result in data set [2] is recorded as “intermediate effect”. Also, the “concentration that almost completely inhibits the oxidative response of neutrophils to E. coli” value in the data set with neutrophils [3] is reported as 76 mM. The “oxidative burst activity of neutrophils” value with neutrophils [4] is “suppress the oxidative burst activity”.
Take `[Na+].[Na+].[O]=[W](=[O])([O-])[O-]` [sodium tungstate]: the “tungstate concentration at which nitrate reductase activity was significantly reduced” value in the data set with nitrate reductase is “exceeding 10 ng/ml”. The “absolute numbers of E. coli recovered from colon contents (bloom)” value in data set [5] (DSS+Na2WO4 versus DSS alone, FIG. 12B) is given as “prevented facultative anaerobic bacteria from blooming”. The “competitive index (ratio of wild-type to moaA mutant) recovered from colon contents” value in [5] (DSS-induced colitis, drinking water with 2 g/l sodium tungstate (130 mg/kg/day)) is listed as “both strains were recovered in equal numbers”. Also, in data set [5] (setting [12]), the “recovery of wild-type versus moaA mutant from colon content” value was “both strains were recovered at similar numbers” and the “total number of E. coli indicator strains recovered from colon content” value was “significantly diminished”. In [6], the body weight was > 90 % of starting weight. In [7], the “overall pathology score of the cecal mucosa” value is reported as “significant (P<0.05) reduction”. Also, the “transcript levels of Tnfa in the cecal mucosa” value in the data set with Tnfa is recorded as “blunting of transcript levels”. Moreover, in the data set on Kc [8], the “induction of Kc in the cecal mucosa” value is listed as “abrogated induction”. Besides, the “levels of pro-inflammatory cytokines (Kc transcript)” value in the data set on Kc [9] is recorded as “did not reduce”. For the same molecule, the inflammation and morbidity entry in data set [2] was “reducing inflammation and morbidity”. Moreover, the “increased abundance of facultative anaerobic bacteria associated with inflammation” value in data set [10] is “not observed”. Besides, the “growth of AIEC by anaerobic respiration” value in the data set with AIEC strain LF82 is listed as “reduction in the growth of AIEC”. For the same molecule, the body weight entry in [11] (human obesity) is recorded as “did not reduce body weight”. For the same molecule, the safety parameters result in data set [11] (human) is “not associated with abnormal safety parameters”.
